Measured values reported in patent publication US6703362B1, “Random peptides that bind to gastro-intestinal tract (GIT) transport receptors and related methods” (Cytogen Corporation, priority 1997, dated 2004).
Peptide text beside a SMILES is read from it. * marks the point of attachment. Dansyl = CN(C)c1cccc2c(S(=O)(=O)*)cccc12

Test system: P100 membrane fractions derived from Caco-2 cells
Assay: Dansylated peptide ELISA: relative binding of PAX2 and HAX42 peptides to P100 (ratio to ZElan021)
Conditions: ratio to ZElan021 = 1.00; for Binding value at 50 μg/ml (Jackson Ab) / Binding value at 50 μg/ml (Southern Ab) / Binding value at 20 μg/ml / Binding value at 50 μg/ml: PAX2 peptides; for Binding value at 25 μg/ml: HAX42 peptides
Description: The peptides and proteins were analyzed by a dansylated peptide ELISA method in which 96 well plates were coated overnight at 4° C. with 100 μl/well coating protein (normally 100 μg/ml P100 membrane fraction) in 0.05M carbonate buffer pH9.6. Nonspecific binding was blocked using 200 μl/well, 2% Marvel/PBS for 2 hours at 37° C. prior to incubation with dansylated peptides. The plates were washed three times with PBS/0.05% Tween 20 and after each subsequent incubation step. […] A buffer blank control was included to ensure that background binding to plastic was not due to the antibodies used in the assay system. […] The plates were then incubated with an anti-mouse X-HRP conjugated antibody (Southern Biotech 1060-05) at a 1:10,000 dilution in blocking solution, 100 μl/well for 1 hour at room temperature. Plates were developed using 75 μl/well Bionostics TMB substrate and incubated for approximately 10 minutes. The developing reaction was stopped using Bionostics Red Stop solution (25 μl/well), and the optical density of the plates was read at 650nm.

C[C@H](NC(=O)[C@H](CCCNC(=N)N)NC(=O)[C@H](CCCNC(=N)N)NC(=O)[C@H](CC(N)=O)NC(=O)[C@H](Cc1c[nH]cn1)NC(=O)[C@H](CO)NC(=O)[C@H](CO)NC(=O)[C@@H](N)CCCCNS(=O)(=O)c1cccc2c(N(C)C)cccc12)C(=O)N[C@@H](CCCNC(=N)N)C(=O)N[C@H](C(=O)N[C@@H](CCCNC(=N)N)C(N)=O)[C@@H](C)O [ZElan079] (H-K(Dansyl)SSHNRRARTR-NH2)
Binding value at 50 μg/ml (Jackson Ab): 0.83
Binding value at 50 μg/ml (Southern Ab): 0.53
Binding value at 20 μg/ml (first 20 μg/ml column): 0.31
Binding value at 50 μg/ml (first 50 μg/ml column): 0.97
Binding value at 50 μg/ml (second 50 μg/ml column): 0.68

CC(C)C[C@H](NC(=O)[C@H](CCCNC(=N)N)NC(=O)[C@H](CCCNC(=N)N)NC(=O)[C@H](CC(N)=O)NC(=O)[C@H](Cc1c[nH]cn1)NC(=O)[C@H](CO)NC(=O)[C@H](CO)NC(=O)[C@@H](N)CCCCNS(=O)(=O)c1cccc2c(N(C)C)cccc12)C(=O)N[C@@H](C)C(=O)N[C@H](C(=O)N[C@@H](CCCNC(=N)N)C(N)=O)[C@@H](C)O [ZElan080] (H-K(Dansyl)SSHNRRLATR-NH2)
Binding value at 50 μg/ml (Jackson Ab): 0.67
Binding value at 50 μg/ml (Southern Ab): 0.38
Binding value at 20 μg/ml (first 20 μg/ml column): 0.23
Binding value at 50 μg/ml (first 50 μg/ml column): 0.84
Binding value at 50 μg/ml (second 50 μg/ml column): 0.45

CC(C)C[C@H](NC(=O)[C@H](CCCNC(=N)N)NC(=O)[C@H](CCCNC(=N)N)NC(=O)[C@H](CC(N)=O)NC(=O)[C@H](Cc1c[nH]cn1)NC(=O)[C@H](CO)NC(=O)[C@H](CO)NC(=O)[C@@H](N)CCCCNS(=O)(=O)c1cccc2c(N(C)C)cccc12)C(=O)N[C@@H](CCCNC(=N)N)C(=O)N[C@@H](C)C(=O)N[C@@H](CCCNC(=N)N)C(N)=O [ZElan081] (H-K(Dansyl)SSHNRRLRAR-NH2)
Binding value at 20 μg/ml (first 20 μg/ml column): 0.01
Binding value at 50 μg/ml (first 50 μg/ml column): 0.89
Binding value at 50 μg/ml (second 50 μg/ml column): 0.47

CC(C)C[C@H](NC(=O)[C@H](CCCNC(=N)N)NC(=O)[C@H](CCCNC(=N)N)NC(=O)[C@H](CC(N)=O)NC(=O)[C@H](Cc1c[nH]cn1)NC(=O)[C@H](CO)NC(=O)[C@H](CO)NC(=O)[C@@H](N)CCCCNS(=O)(=O)c1cccc2c(N(C)C)cccc12)C(=O)N[C@@H](CCCNC(=N)N)C(=O)N[C@H](C(=O)N[C@@H](C)C(N)=O)[C@@H](C)O [ZElan082] (H-K(Dansyl)SSHNRRLRTA-NH2)
Binding value at 20 μg/ml (first 20 μg/ml column): 0.00
Binding value at 50 μg/ml (first 50 μg/ml column): 0.92
Binding value at 50 μg/ml (second 50 μg/ml column): 0.40

CC(C)C[C@H](NC(=O)[C@H](CCCNC(=N)N)NC(=O)[C@H](CO)NC(=O)[C@@H](NC(=O)[C@H](CCCCN)NC(=O)[C@H](CC(N)=O)NC(=O)[C@H](CCCNC(=N)N)NC(=O)[C@@H](NC(=O)[C@H](CC(N)=O)NC(=O)[C@H](CCCNC(=N)N)NC(=O)[C@@H](N)CCCCNS(=O)(=O)c1cccc2c(N(C)C)cccc12)[C@@H](C)O)[C@@H](C)O)C(=O)N[C@@H](CO)C(=O)N[C@@H](C)C(=O)N[C@@H](CC(N)=O)C(=O)N1CCC[C@H]1C(=O)N[C@@H](Cc1c[nH]cn1)C(=O)N[C@@H](CCCNC(=N)N)C(=O)N[C@@H](CO)C(=O)N[C@@H](Cc1c[nH]cn1)C(=O)N[C@@H](CCCNC(=N)N)C(N)=O [ZElan084, reference compound] (H-K(Dansyl)RNTRNKTSRLSANPHRSHR-NH2)
Binding value at 20 μg/ml (first 20 μg/ml column): 1.06
Binding value at 50 μg/ml (first 50 μg/ml column): 1.16
Binding value at 20 μg/ml (second 20 μg/ml column): 0.93
Binding value at 50 μg/ml (second 50 μg/ml column): 0.77

C[C@@H](O)[C@H](NC(=O)[C@H](CO)NC(=O)[C@H](CC(N)=O)NC(=O)CNC(=O)[C@H](CC(N)=O)NC(=O)CNC(=O)[C@H](CS)NC(=O)[C@H](CS)NC(=O)[C@H](CC(N)=O)NC(=O)[C@H](Cc1ccc(O)cc1)NC(=O)[C@H](CC(=O)O)NC(=O)CNC(=O)[C@@H]1CCCN1C(=O)[C@H](CCC(=O)O)NC(=O)[C@@H](N)CCCCNS(=O)(=O)c1cccc2c(N(C)C)cccc12)C(=O)NCC(=O)O [ZElan090] (H-K(Dansyl)EPGDYNCCGNGNSTG-OH; C-terminus assumed)
Binding value at 25 μg/ml (first 25 μg/ml column): 2.06
Binding value at 25 μg/ml (second 25 μg/ml column): 1.54
Binding value at 25 μg/ml (third 25 μg/ml column): 2.16
